Experimental data as given in patent US6248718A, “Lesion-directed dry dosage forms of antibacterial agents for the treatment of acute mucosal infections of the oral cavity” (priority 1999, dated 2001).
In brackets after ≈: the same amount, converted by molar mass.

Experiments:
[1] = tested on: Staphylococcus aureus (ATCC 29213); test: MIC for standard strain used in saliva antibiotic assay (Examples I, II); format: cell-based; conditions: nutrient broth, 37° C., 18 hours
Source text: The final concentrations of oxytetracycline in the control standard nutrient broth were 0.25 mcg/ml, 0.5 mcg/ml, 1.0 mcg/ml, 2.0 mcg/ml, 4.0 mcg/ml, and 8.0 mcg/ml. The final dilutions of saliva sample were 1/50,000, 1/100,000, 1/200,000, 1/400,000, 1/800,000 and 1/1,600,000 for the peak concentration test tubes and 1/4,000. 1/8,000, 1/16,000 and 1/32,000 for the trough concentration test tubes. The Staphylococcus aureus (ATCC 29213) was also used as the standard test microorganism.

[2] = tested on: bacteria in human saliva; test: Inhibition of bacterial growth in human saliva in vitro (Example IV); format: cell-based
Procedure: For this study, five healthy adult volunteers, three men and two women, were asked to refrain from drinking and eating for two hours after breakfast. At the end of two hours, about five (5) ml of saliva was obtained from the oral cavity of each volunteer. Aliquots of 0.1 ml of saliva were pipetted immediately from each saliva sample and spread over the surface of two 5% sheep blood agar plates with a sterile plastic loop. One inoculated blood agar plate was incubated in an aerobic atmosphere containing 5% CO2, and the other anaerobically at 37° C. for 18 hours, as untreated controls.
Aliquots of 0.2 ml of the saliva from each volunteer's sample were pipetted into sterile test tubes, and labeled from No. 2 to No. 13. Five equal doses of dry powder of the USP grade penicillin G potassium salt, 200 mg each, were weighed and put into five sterile test tubes, all labeled No. 1. The dry powder of antibiotic was dissolved in 0.4 ml saliva obtained from each of the five volunteers to constitute an initial concentration of antibiotic concentration of […] in saliva. An aliquot of 0.2 ml of the saliva antibiotic solution was pipetted from tube No. 1 into tube No. 2. After having been thoroughly mixed, 0.2 ml of the content in tube No. 2 was pipetted to tube No. 3, and so forth continuously in succession to make a serial double dilution of penicillin G potassium solutions in saliva through tube No. 13. Finally, the test tubes contained different concentrations of penicillin G potassium in the saliva of five volunteers, as follows.
The mixtures of antibiotic and saliva in the test tubes were incubated at 37° C. One hour later, an aliquot of 0.1 ml was pipetted from the content of each tube, first dropped in the center of a blood agar plate and then spread to the periphery of the plate surface. The plates were incubated aerobically at 37° C. with 5% carbon dioxide in the atmosphere for 18 hours and were examined for bacterial growth.

[3] = tested on: bacteria in saliva of healthy volunteers; test: Inhibition of bacterial growth in the saliva in vivo (Example V); conditions: in theory, 0.1 ml saliva
Procedure: Five healthy adult volunteers, three men and two women, were asked to refrain from drinking or eating for two hours after breakfast. At the end of two hours, an aliquot of 0.1 ml of saliva was pipetted from the mouth of each volunteer and spread over the surface of a sheep blood agar plate with a sterile plastic loop. The inoculated blood agar plate was incubated in an aerobic atmosphere containing 5% CO2 as pre-medication control. Then 100 mg, 50 mg, 20 mg, 10 mg and 2 mg of penicillin G potassium dry powder, USP grade, were placed in the right buccal pouch with a spatula between the cheek and the lower gum of each volunteer, respectively. The volunteers were asked to retain the dissolved penicillin powder at the site of medication as concentrated as possible, not to be diluted by saliva from other parts of the mouth for one hour.
At the end of one hour, 0.1 ml of saliva from each volunteer was pipetted from the right buccal pouch where the medication was placed, and inoculated and spread onto the surface of a sheep blood agar plate. The inoculum was spread with a sterile plastic loop.

[4] = tested on: Gram-negative bacilli (Salmonella, Shigella, most Escherichia coli strains, all Proteus mirabilis strains and most Bacteroides strains); conditions: in vitro; cited from earlier work
[5] = intravenous injection of 500 mg penicillin G; cited from earlier work
[6] = Topical treatment of patients with aphthous ulcers with troches; format: in vivo, human
Procedure: Patients with aphthous ulcers were advised to brush their teeth to rid them of food residues, and to rinse their mouths with water prior to initiating treatment. One penicillin/magnesium stearate troche was placed in the patients mouths directly over the ulcerated lesion. The troche was dissolved or disintegrated in a minimum amount of saliva directly over the ulcer in no more than 15 minutes, preferably in about 8 to about 12 minutes. The patients were advised to keep the ingredients of the disintegrated troche at the site of the lesion as long as possible. Food and beverages were avoided for one hour after each treatment. If multiple aphthous ulcers were present, only one troche is required for the treatment of a cluster of small ulcers. The topical treatments were conducted 4 times daily, for example, after breakfast, after lunch, after dinner and before bed time for no more than 4 days. […] The burning sensation lessened with subsequent applications.
For instance, the first sign of healing is usually the fading of the hyperemic zone at the periphery of the ulcer and the lessening of edema at the base of the ulcer. The membrane covering the ulcer becomes thinner, more translucent, more pearly white instead of a grayish-yellowish white prior to the application and contract with the troche. […]

[7] = Local concentration of penicillin in saliva after a troche containing 50 mg penicillin G; format: in vivo, human
Procedure: The local concentration of penicillin in the saliva was determined as follows. […] This loculated pocket of saliva was not swallowed and was not to be diluted with excess saliva from other parts of the mouth for one hour. Two samples were taken for assay to determine the peak and trough local concentrations of penicillin during the one-hour duration of medicinal treatment. At the time when the troche was completely dissolved and one hour later, aliquots of 10 microliters were pipetted from this pocket of saliva solution at the site of medication, representing the peak level and the trough level of antibiotic concentration, and transferred into 10 ml of distilled water to make a 1:1.000 dilution and into 1 ml of distilled water to make a 1:100 dilution, respectively. The diluted saliva antibiotic solutions were passed through a sterile bacteria-filter to remove any bacterial or fungal contaminants of the oral flora.
For determination of the peak concentration, 1 ml of the bacteria-free filtrate was further diluted with 9 ml of nutrient broth to achieve a 1:10,000 dilution of the saliva. Then a serial two-fold dilution was made of this 1:10,000 diluted saliva sample with an equal volume of nutrient broth in a roll of test tubes to obtain a series of 1 ml aliquots of nutrient broth in which the saliva was diluted to 20,000, 40,000, 80,000, 160,000, 320,000, 640,000, 1,280,000 and 2,560,000 folds respectively. […] Thus the final dilutions of the saliva sample were in the range of 40,000 to 5,120,000 folds.
For determining the trough concentration, the entire 1 ml of the 1:100 diluted saliva filtrate was used to make the serial dilutions so that the final dilutions of saliva sample were in the range of 4,000 to 256,000 folds in the final test culture.
As control standards, a series of test tubes containing 1 ml of nutrient broth with varying concentrations of penicillin G potassium salt ranging from 0.1 units to 10 units/ml were similarly mixed with an equal volume of nutrient broth freshly inoculated with the standard tubes of Staphylococcus aureus. Both the test and control standard tubes were incubated at 37° C. for 18 hours. Among the test tubes showing no gross evidence of bacterial growth, the one containing the highest dilution of saliva and the one containing the least amount of penicillin G were considered as having the identical concentration of penicillin, i.e. the MIC of the staphylococcus aureus.

[8] = tested on: Staphylococcus aureus ATCC 29213; test: MIC for standard strain used in saliva antibiotic assay (Examples VII-IX); format: cell-based; conditions: nutrient broth, 37° C., 18 hours
Procedure: Each filtered mixture in test tube was inoculated with 0.1 ml of a 1:1,000 dilution of a 12 hour broth culture of Staphylococcus aureus ATCC 29213.
A row of 6 test tubes each containing 2 ml of nutrient broth with decreasing concentrations of penicillin G potassium from 6.2 to 0.16 mcg/ml, using a serial double dilution method described in a., was prepared and similarly inoculated with 0.1 ml broth culture of Staphylococcus aureus ATCC 29213 as the standard.
All test tubes were incubated at 37° C. for 18 hours and observed for bacterial growth against an inoculated broth containing neither antibiotic nor saliva samples.
In this study, the drug powder was suspended in one teaspoonful of water and swallowed by the test subjects two hours after breakfast, followed by drinking an 8 Oz. glass of water. The test subjects refrained from drinking or eating for the next three hours. Six samples of saliva were collected from each subject at 30-minute intervals in succession in the next three hours. An aliquot of 0.2 ml from each saliva sample was transferred to 3.8 ml of nutrient broth. The mixture of the latter was forced to pass a bacterial filter. Two (2) ml of the bacteria-free filtrate was pipetted out into a sterile test tube and inoculated with 0.1 ml of a 1:1,000 dilution of a 12 hours broth culture of Staphylococcus aureus ATCC 29213 and incubated at 37° C. for 18 hours. […]

[9] = tested on: Staphylococcus aureus (ATCC 29213); conditions: standard strain; cited from earlier work
[10] = earlier treatments of oral infections / aphthous ulcers; cited from earlier work

Structure (SMILES) | MIC [1] | bactericidal effect ([2]; 1 mg/ml, one hour's incubation) | MIC ([2]; Homo sapiens, read-out: MIC / concentration inhibiting growth of oral flora in saliva) | theoretical dose sufficient for initial topical MIC concentration of 2 mg/ml [3] | cut-off minimum inhibition concentration at which many Gram-negative bacilli fall into sensitive category [4] | average peak blood level [5] | adverse reactions ([6]; 4 days of penicillin medication) | state of ulcer membrane ([6]; after 4 days of penicillin medication) | initial concentration at the ulcer ([7]; assuming troche is dissolved in 0.1 ml of saliva) | local trough concentration in saliva ([7]; human, in vivo, 60 min) | concentration at 1 h ([7]; human, saliva, 50 mg, 50 mg troche, end of one hour, read-out: local trough concentration in saliva) | concentration at which bacteria grew to full turbidity [8] | MIC / concentration inhibiting growth of oral flora in saliva ([2]; in vitro, aerobic) | known minimum inhibitory concentration (MIC) [9] | effectiveness of treatment [10]
CC1(C)S[C@@H]2[C@H](NC(=O)Cc3ccccc3)C(=O)N2[C@H]1C(=O)O [penicillin G] | 1 unit/ml | not "bactericidal" within one hour's incubation time | 2000 µg/mL (≈ 5.98 mM) | 0.2 mg | ≤ 740 µg/mL | 16 mcg/ml and about 16 mcg/ml and about 26 units/mi |  |  |  |  |  |  |  |  | 
CC1(C)S[C@@H]2[C@H](NC(=O)Cc3ccccc3)C(=O)N2[C@H]1C(=O)O [penicillin] |  |  |  |  |  |  | no observed adverse reactions of stomatitis or discoloration of the tongue | only remnants of a thin pearly whitish membrane remain, if any | up to 500 mg/ml | about 12,000 Units per 1 ml saliva | ~7500 µg/mL | ≤ 0.37 µg/mL | 2000 µg/mL | 0.25-2 units/mi | ineffective
